In one data set the test system is S. aureus biofilm. Kind of data set: Biofilm eradication test (MBEC assay with Calgary Biofilm Device). Type of data set: cell-based, Staphylococcus aureus. How it is done: The eradication tests were performed by adding free or loaded and/or supported API after the maturation of a biofilm for 24 hours.
VCN was tested against S. aureus and NTF against T. pneumoniae.
The log reduction was calculated according to the following formula:
Log reduction (LR)=Log10(mean number of CPUs without reatment)/(mean number of CFUs after treatment), where CFUs are Colony Formation Units.
Correspondingly, the eradication percentage P was calculated according to the following formula: […]
Testing was performed by MBEC assay with Calgary Biofilm Device.

The conditions of data set [1]: water; cited from earlier work.
The test system of another data set is K. pneumoniae biofilm. The experiment in a line: Biofilm eradication test (MBEC assay with Calgary Biofilm Device). Type of data set: cell-based, Klebsiella pneumoniae. On the procedure:
The eradication tests were performed by adding free or loaded and/or supported API after the maturation of a biofilm for 24 hours. VCN was tested against S. aureus and NTF against […]. […] The log reduction was calculated according to the following formula: Log reduction (LR)=Log10(mean number of CPUs without […] number of CFUs after treatment), where CFUs are Colony Formation Units. Correspondingly, the eradication percentage P was calculated according to the following formula: […] Testing was performed by MBEC assay with Calgary Biofilm Device.

The conditions of data set [2]: footnote a not given; cited from earlier work.
The next data set concerns K. pneumoniae. Kind of data set: Plate antimicrobial tests. Type of data set: cell-based. The conditions noted are these: plate test; strain not given. On the procedure: (§1) Plate antimicrobial tests were conducted to verify the inactivity of the nanoparticles and to confirm that the antibacterial activity is linked to being loaded with at least one API. The negative control corresponds to S. aureus and K. pneumoniae without API.

Another data set relates to S. aureus. The experiment in a line: Plate antimicrobial tests. Type of data set: cell-based. The conditions noted are these: plate test; strain not given. How it is done: as §1

Values after ≈ are worked out from the molar mass of the structure shown.

What is called LogP is the decadic logarithm of the partition coefficient of the neutral form, usually between octanol and water.

Regarding `CN[C@H](CC(C)C)C(=O)N[C@H]1C(=O)N[C@@H](CC(N)=O)C(=O)N[C@H]2C(=O)N[C@H]3C(=O)N[C@H](C(=O)N[C@H](C(=O)O)c4cc(O)cc(O)c4-c4cc3ccc4O)[C@H](O)c3ccc(c(Cl)c3)Oc3cc2cc(c3O[C@@H]2O[C@H](CO)[C@@H](O)[C@H](O)[C@H]2O[C@H]2C[C@](C)(N)[C@H](O)[C@H](C)O2)Oc2ccc(cc2Cl)[C@H]1O` [VCN, vancomycin], the “Log Reduction Log (CFU/ml) ± SD” value in the data set on S. aureus biofilm (S. aureus preformed biofilm (24 hours), highest concentration tested) is 2.0 ± 0.4 Log (CFU/ml). Moreover, the “P (%) eradication percentage” value in the data set with S. aureus biofilm (S. aureus preformed biofilm, P=[1−10^−LR]*100) is listed as 99.0%. In addition, in data set [1], the “Solubility H2O” value was more than 50000 µg/mL.

Regarding `O=C1CN(/N=C/c2ccc([N+](=O)[O-])o2)C(=O)N1` [NTF, Nitrofurantoin], in the data set with K. pneumoniae biofilm (K. pneumoniae preformed biofilm (24 hours), highest concentration tested), the “Log Reduction Log (CFU/ml) ± SD” value is recorded as 2.5 ± 1.0 Log (CFU/ml). Moreover, the “P (%) eradication percentage” value with K. pneumoniae biofilm (K. pneumoniae preformed biofilm, P=[1−10^−LR]*100) stood at 99.7%. Also, the “Solubility H2O” value in data set [1] was 80 µg/mL (≈ 336 µM).

Take `COc1ccc2c(c1)c(CC(=O)O)c(C)n2C(=O)c1ccc(Cl)cc1` [INDM]: in data set [1], the “Solubility H2O” value is 80 µg/mL (≈ 224 µM). In data set [2], the LogP is reported as 4.27.

With `CC(=O)N[C@@H](CS)C(=O)O` [NAC, N-acetyl-L-cysteine], the “concentration below which no antibacterial activity is exhibited” value in the data set with K. pneumoniae and in the data set on S. aureus was 1 to 2 mg/mL each time. Also, in data set [2], the LogP is listed as −0.03.
